Source: patent publication US8980879B2 (AbbVie Inc., priority 2013, dated 2015)

Columns and labels:
[1] = molecular target: T1, BRD4 (BDI_K57-E168) (Homo sapiens, UniProt O60885); assay: TR-FRET bromodomain binding assay, BRD4 first bromodomain; conditions: His-tagged BD1, 100 nM Alexa647 probe; assay protocol D or F as given per row in c1; Ki calculated from IC50
T1 construct: BD1: amino acids K57-E168; made in house
Method: (§1) A time-resolved fluorescence resonance energy transfer (TR-FRET) assay was used to determine the affinities of compounds of the Examples listed in Table 1 for each bromodomain of BRD4. His-tagged first (BD1: amino acids K57-E168) and second (BD2: amino acids E352-E168) bromodomains of BRD4 were expressed and purified. An Alexa647-labeled BET-inhibitor was used as the fluorescent probe in the assay.
(§2) Compound dilution series were prepared in DMSO via an approximately 3-fold serial dilution from one of the following:
(§3) Assay method D: 500 μM-8.5 nM
(§4) Assay method E: 0.47 mM to 7.8 nM
(§5) Assay method F: 250 μM-4.2 nM
(§6) Assay method G: 0.047 mM to 0.78 nM
(§7) or 5-fold serial dilution from one of the following:
(§8) Assay method A: 2.5 mM-800 nM
(§9) Assay method B: 2.5 mM-797 nM
(§10) For Assay methods A, C, D, and F: Compounds were then diluted 6:100 in assay buffer (20 mM Sodium Phosphate, pH 6.0, 50 mM NaCl, 1 mM Ethylenediaminetetraacetic acid, 0.01% Triton X-100, 1 mM DL-Dithiothreitol) to yield 3× working solutions. Six microliters (μL) of the working solution was then transferred to white, low-volume assay plates (Costar #3673). A 1.5× assay mixture containing His-tagged bromodomain, Europium-conjugated anti-His antibody (Invitrogen PV5596) and the Alexa-647-conjugated probe molecule was also prepared. Twelve μL of this solution were added to the assay plate to reach a final volume of 18 μL.
(§11) For Assay methods B, E, and G: Compound dilutions were added directly into white, low-volume assay plates (Perkin Elmer Proxiplate 384 Plus#6008280) using a Labcyte Echo in conjunction with Labcyte Access and Thermo Multidrop CombinL robotics. Compounds were then suspended in eight microliters (μL) of assay buffer (20 mM Sodium Phosphate, pH 6.0, 50 mM NaCl, 1 mM Ethylenediaminetetraacetic acid disodium salt dihydrate, 0.01% Triton X-100, 1 mM DL-Dithiothreitol) containing His-tagged bromodomain, Europium-conjugated anti-His antibody (Invitrogen PV5596) and Alexa-647-conjugated probe.
(§12) The final concentration of 1× assay mixture for assay methods A, B, C, D, E, F, and G contains 2% DMSO, 8 nM His-tagged bromodomain, 1 nM Europium-conjugated anti-His-tag antibody and 100 nM or 30 nM probe (for BDI or BDII, respectively) and compound concentration in the range of: 50 μM-16 nM for method A, 49.02 μM-15.63 nM for method B, 25 μM-423 pM for method C, 10 μM-169 pM for method D, 9.19 μM 150 pM for method E, 5 μM-85 pM for method F, and 0.92 μM-15 pM for method G.
(§13) After a one-hour equilibration at room temperature, TR-FRET ratios were determined using an Envision multilabel plate reader (Ex 340, Em 495/520).
(§14) TR-FRET data were normalized to the means of 24 no-compound controls (“high”) and 8 controls containing 1 μM un-labeled probe (“low”). Percent inhibition was plotted as a function of compound concentration and the data were fit with the 4 parameter logistic equation to obtain IC50s Inhibition constants (Ki) were calculated from the IC50s, probe Kd and probe concentration. Typical Z′ values were between 0.65 and 0.75. The minimum significant ratio was determined to evaluate assay reproducibility (Eastwood et al., (2006) J Biomol Screen, 11: 253-261). The MSR was determined to be 2.03 for BDI and 1.93 for BDII, and a moving MSR (last six run MSR overtime) for both BDI and BDII was typically <3.

[2] = molecular target: T2, BRD4 (BDII_E352-M457) (Homo sapiens, UniProt O60885); assay: TR-FRET bromodomain binding assay, BRD4 second bromodomain
T2 construct: protocol; made in house
Method: as §1, §2, §3, §4, §5, §6, §7, §8, §9, §10, §11, §12, §13, §14

[3] = test system: breast cancer cell line MX-1; assay: MX-1 cell line proliferation assay; type: cell-based; conditions: Homo sapiens, MX1; MX-1 cells, 3-day (72 h) proliferation, Cell Titer Glo; read-out: Cellular proliferation: EC50
Method: MX-1 Cell Line Proliferation Assay
The impact of compounds of the Examples on cancer cell proliferation was determined using the breast cancer cell line MX-1 (ATCC) in a 3-day proliferation assay and the data are reported in Table 1. MX-1 cells were maintained in RPMI 1640 medium (Sigma) supplemented with 10% FBS at 37 C.° and an atmosphere of 5% CO2. For compound testing, MX-1 cells were plated in 96-well black bottom plates at a density of 5000 cells/well in 90 μL of culture media and incubated at 37° overnight to allow cell adhesion and spreading. Compound dilution series were prepared in DMSO via a 3-fold serial dilution from 3 mM to 0.1 μM. The DMSO dilution series were then diluted 1:100 in phosphate buffered saline, and 10 μL of the resulted solution were added to the appropriate wells of the MX-1 cell plate. The final compound concentrations in the wells were 3, 1, 0.3, 0.1, 0.03, 0.01, 0.003, 0.001, 0.0003 and 0.0001 μM.
Luminescence readings from the Cell Titer Glo assay were normalized to the DMSO treated cells and analyzed using the GraphPad Prism software with sigmoidal curve fitting to obtain EC50s. The minimum significant ratio (MSR) was determined to evaluate assay reproducibility (Eastwood et al., (2006) J Biomol Screen, 11: 253-261). The overall MSR was determined to be 2.1 and a moving MSR (last six run MSR overtime) has been <2.

| Structure (SMILES) | Ki [1] [nM] | Ki [2] [nM] | EC50 [3] [nM] |
| --- | --- | --- | --- |
| Cn1cc2c3c(c[nH]c(=O)c31)CNc1ccc(S(C)(=O)=O)cc1-2 [Example 1] | 1350 | 2820 | > 3000 |
| Cn1cc2c3c(c[nH]c(=O)c31)CN(CC1CC1)c1ccc(S(C)(=O)=O)cc1-2 [Example 2] | 21 | 430 | 144 |
| Cn1cc2c3c(c[nH]c(=O)c31)CN(C(=O)C1CC1)c1ccc(CS(C)(=O)=O)cc1-2 [Example 6] | 3.53 | 2.44 | 16.4 |
| Cn1cc2c3c(c[nH]c(=O)c31)CN(C(=O)c1ccccc1)c1ccc(CS(C)(=O)=O)cc1-2 [Example 7] | 59.1 | 97.5 | 273 |
| COCCC1c2c[nH]c(=O)c3c2c(cn3C)-c2cc(CS(C)(=O)=O)ccc2N1c1ccc(F)cc1 (stereo not drawn) [Example 8] | 5.81 | 25.2 | 46.6 |
| COC(=O)CCC1c2c[nH]c(=O)c3c2c(cn3C)-c2cc(CS(C)(=O)=O)ccc2N1c1ccc(F)cc1 (stereo not drawn) [Example 9] | 6.29 | 18.2 | 805 |
| Cn1cc2c3c(c[nH]c(=O)c31)C(CC1CCOCC1)N(c1ccc(F)cc1)c1ccc(CS(C)(=O)=O)cc1-2 (stereo not drawn) [Example 10] | 8.23 | 57.4 | 81.6 |
| Cn1cc2c3c(c[nH]c(=O)c31)CN(CC1CC1)c1ccccc1-2 [Example 11] | 7.14 | 18.9 | 56.8 |
| CCS(=O)(=O)Nc1ccc2c(c1)-c1cn(C)c3c(=O)[nH]cc(c13)CN2c1ccc(F)cc1 [Example 12] | 2.18 | 4.3 | 5.63 |
| Cn1cc2c3c(c[nH]c(=O)c31)CN(c1ccc(F)cc1)c1ccc(Cl)cc1-2 [Example 13] | 2.74 | 34.1 | 72 |
| Cn1cc2c3c(c[nH]c(=O)c31)CN(c1ccc(F)cc1)c1ncc(N)cc1-2 [Example 14] | 3 | 3.69 | 2.78 |
| CCOC(=O)C1c2c[nH]c(=O)c3c2c(cn3C)-c2cc(CS(C)(=O)=O)ccc2N1c1ccc(F)cc1 (stereo not drawn) [Example 15] | 9.14 | 26.9 | 36.3 |
| Cn1cc2c3c(c[nH]c(=O)c31)CN(c1ccc(F)cc1)c1ncc(F)cc1-2 [Example 16] | 0.79 | 5.07 | 5.55 |
| Cn1cc2c3c(c[nH]c(=O)c31)CN(c1ccc(F)cc1)c1ncc(NC(=O)Cc3cc(F)ccc3Cl)cc1-2 [Example 17] | 1.43 | 2.48 | 19.9 |
| Cc1cc(CC(=O)Nc2cnc3c(c2)-c2cn(C)c4c(=O)[nH]cc(c24)CN3c2ccc(F)cc2)nn1C [Example 18] | 1.82 | 3.46 | 7.02 |
| Cn1cc2c3c(c[nH]c(=O)c31)CN(c1ccc(F)cc1)c1ncc(NC(=O)Cn3ccc(-c4ccccc4F)n3)cc1-2 [Example 19] | 1.32 | 11.6 | 68.7 |
| Cn1cc2c3c(c[nH]c(=O)c31)CN(c1ccc(F)cc1)c1ncc(NC(=O)Cc3ccc(Cl)cc3F)cc1-2 [Example 20] | 1.76 | 4.69 | 36.5 |
| Cn1cc2c3c(c[nH]c(=O)c31)CN(c1ccc(F)cc1)c1ncc(NC(=O)Cc3ccc4c(c3)CCCO4)cc1-2 [Example 21] | 1.05 | 2.69 | 16.6 |

Second part, the molecule after the results:

| Ki [1] [nM] | Ki [2] [nM] | EC50 [3] [nM] | Structure (SMILES) |
| --- | --- | --- | --- |
| 1.29 | 3.03 | 16.5 | Cn1cc(CC(=O)Nc2cnc3c(c2)-c2cn(C)c4c(=O)[nH]cc(c24)CN3c2ccc(F)cc2)cn1 [Example 22] |
| 1.38 | 7.54 | 4.79 | Cn1cc2c3c(c[nH]c(=O)c31)CN(c1ccc(F)cc1)c1ccc(N)cc1-2 [Example 23] |
| 178 | > 408 |  | Cn1cc2c3c(c[nH]c(=O)c31)C(c1ccccc1)N(c1ccc(F)cc1)c1ccc(Cl)cc1-2 (stereo not drawn) [Example 24] |
| 192 | 124 | > 1000 | Cn1cc2c3c(c[nH]c(=O)c31)C(c1ccccc1)Nc1ccc(CS(C)(=O)=O)cc1-2 (stereo not drawn) [Example 25] |
| 3.03 | 22.4 |  | Cn1cc2c3c(c[nH]c(=O)c31)CN(c1ccc(F)cc1)c1ccc(NC(=O)Cc3ccc(Cl)cc3F)cc1-2 [Example 29] |
| 11.5 | 79.5 |  | Cn1cc2c3c(c[nH]c(=O)c31)CN(c1ccc(F)cc1)c1ccc(NC(=O)Cn3ccc(-c4ccccc4F)n3)cc1-2 [Example 31] |
| 7.12 | 130 |  | COc1cccc(NC(=O)Nc2ccc3c(c2)-c2cn(C)c4c(=O)[nH]cc(c24)CN3c2ccc(F)cc2)c1 [Example 45] |
| 3.29 | 19.7 |  | Cn1cc2c3c(c[nH]c(=O)c31)CN(c1ccc(F)cc1)c1ccc(NC(=O)Cc3ccc4c(c3)CCCO4)cc1-2 [Example 46] |
| 5.12 | 84.8 |  | Cn1cc2c3c(c[nH]c(=O)c31)CN(c1ccc(F)cc1)c1ccc(NC(=O)Cc3cc(F)ccc3C(F)(F)F)cc1-2 [Example 51] |
| 2.61 | 50.1 |  | Cc1ccc(C)c(CC(=O)Nc2ccc3c(c2)-c2cn(C)c4c(=O)[nH]cc(c24)CN3c2ccc(F)cc2)c1 [Example 53] |
| 2.07 | 17.9 |  | Cn1cc2c3c(c[nH]c(=O)c31)CN(c1ccc(F)cc1)c1ccc(NC(=O)Cc3ccccc3)cc1-2 [Example 54] |
| 9.31 | 240 |  | Cn1cc2c3c(c[nH]c(=O)c31)CN(c1ccc(F)cc1)c1ccc(NC(=O)Cc3cc(Cl)ccc3Oc3ccccc3)cc1-2 [Example 55] |
| 1.74 | 57.4 |  | COc1ccc(F)cc1CNC(=O)c1ccc2c(c1)-c1cn(C)c3c(=O)[nH]cc(c13)CN2c1ccc(F)cc1 [Example 56] |
| 2.89 | 71.5 |  | CC(NC(=O)c1ccc2c(c1)-c1cn(C)c3c(=O)[nH]cc(c13)CN2c1ccc(F)cc1)c1ccc(F)cc1 (stereo not drawn) [Example 59] |
| 5.17 | 147 |  | CC(NC(=O)c1ccc2c(c1)-c1cn(C)c3c(=O)[nH]cc(c13)CN2c1ccc(F)cc1)c1ccc(Cl)cc1Cl (stereo not drawn) [Example 61] |
| 1.73 | 46.9 |  | Cn1cc2c3c(c[nH]c(=O)c31)CN(c1ccc(F)cc1)c1ccc(C(=O)NCc3cc(F)ccc3F)cc1-2 [Example 64] |
| 21.2 | 7 |  | Cn1cc2c3c(c[nH]c(=O)c31)CN(c1ccc(F)cc1F)c1ncc(N)cc1-2 [Example 67] |
| 7.08 | 41.8 |  | CC(=O)N1CCC(N2Cc3c[nH]c(=O)c4c3c(cn4C)-c3cc(N)ccc32)CC1 [Example 73] |
